Measurements: patent US20220332700A1, “NOVEL APOPTOSIS SIGNAL-REGULATING KINASE 1 INHIBITORS” (MANKIND PHARMA LTD, priority 2019, published 2022)
pIC50: −log10 of the molar value.

Target: T1, ASK2 (Homo sapiens, UniProt O95382)
T1 construct: purchased Carna Biosciences
T1 sequence (O95382 1-1288): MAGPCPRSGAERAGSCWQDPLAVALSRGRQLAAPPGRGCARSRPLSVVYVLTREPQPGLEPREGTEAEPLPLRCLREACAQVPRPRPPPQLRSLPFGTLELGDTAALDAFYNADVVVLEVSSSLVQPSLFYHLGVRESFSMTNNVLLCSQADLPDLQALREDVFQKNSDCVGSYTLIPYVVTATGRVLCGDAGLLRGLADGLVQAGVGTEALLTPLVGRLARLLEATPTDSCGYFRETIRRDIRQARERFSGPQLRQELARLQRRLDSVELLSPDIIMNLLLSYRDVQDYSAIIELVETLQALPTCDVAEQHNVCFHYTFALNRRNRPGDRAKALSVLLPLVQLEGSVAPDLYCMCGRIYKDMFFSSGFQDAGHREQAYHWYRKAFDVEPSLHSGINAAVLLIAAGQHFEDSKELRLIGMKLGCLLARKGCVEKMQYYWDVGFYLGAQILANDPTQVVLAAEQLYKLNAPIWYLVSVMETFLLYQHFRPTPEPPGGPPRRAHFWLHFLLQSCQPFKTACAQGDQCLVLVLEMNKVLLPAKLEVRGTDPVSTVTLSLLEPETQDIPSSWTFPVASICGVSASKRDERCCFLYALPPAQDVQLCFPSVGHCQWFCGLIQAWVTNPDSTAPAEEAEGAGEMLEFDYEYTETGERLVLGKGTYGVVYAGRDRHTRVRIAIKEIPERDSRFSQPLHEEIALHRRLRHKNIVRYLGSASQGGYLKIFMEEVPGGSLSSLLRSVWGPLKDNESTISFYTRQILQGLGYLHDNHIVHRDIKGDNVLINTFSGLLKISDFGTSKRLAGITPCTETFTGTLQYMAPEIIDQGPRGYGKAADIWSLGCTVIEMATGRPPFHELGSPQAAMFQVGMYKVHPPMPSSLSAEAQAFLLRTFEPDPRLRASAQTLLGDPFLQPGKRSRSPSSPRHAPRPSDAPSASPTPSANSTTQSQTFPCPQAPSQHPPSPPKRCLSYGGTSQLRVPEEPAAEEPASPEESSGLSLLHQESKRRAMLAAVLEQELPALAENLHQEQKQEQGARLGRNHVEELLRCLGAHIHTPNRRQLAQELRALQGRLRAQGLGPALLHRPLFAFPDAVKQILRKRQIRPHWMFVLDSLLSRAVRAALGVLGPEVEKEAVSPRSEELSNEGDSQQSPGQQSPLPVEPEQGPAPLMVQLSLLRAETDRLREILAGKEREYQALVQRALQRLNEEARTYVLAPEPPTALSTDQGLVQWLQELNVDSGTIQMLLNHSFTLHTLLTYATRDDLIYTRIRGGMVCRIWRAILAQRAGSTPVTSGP
Assay: ASK2 biochemical assay (selectivity assay)
Details: ATP 100 μM
Protocol: ASK2 assay was performed to evaluate above mentioned example for its selectivity towards ASK1 with respect ASK 2.
ASK2 biochemical assay was standardized using ASK2 (Carna Biosciences), MBP biotin conjugate (Merk life science), ATP, streptavidin surelight APC (PerkinElmer) and Lance Eu-W1024-antiphospho threonine (PerkinElmer). Enzyme concentration, ATP, MBP biotin conjugate and antibodies were titrated for enzyme assay. Assay was carried out in freshly prepared ASK2 kinase buffer, 5 mM MOPS pH-7.2, 2.5 mM β-glycerophosphate, 5 mM magnesium chloride (MgCl2), 1 mM EGTA, 0.4 mM EDTA, 0.05 mM DTT and 0.05% BSA. DMSO was used as vehicle control with a final concentration of 1%. A 40 ng of ASK2 enzyme was incubated with compound for 1 hour at 23° C. on a shaker at 100rpm. ATP and MBP biotin conjugate (as substrate) was added at a final concentration of 100 μM and 0.1mg/ml respectively and incubated for 3 hours at 23° C. on a shaker at 100rpm. Detection reagents streptavidin surelight APC (55.56nM), lance Eu-W1024-antiphospho threonine antibody (1.11nM) and 1X lance detection buffer were added and incubated for 2 hour at room temperature on a shaker at 100rpm. Delta F ratios were calculated from data obtained at excitation (337 nm) and emission wavelengths (665 nm and 620-10 nm). Substrate blank values were considered as negative control. Values from negative control were subtracted from vehicle control and compound treated wells. Enzyme inhibition by compounds was calculated from vehicle controls, which represent uninterrupted enzyme's activity.

pIC50	SMILES
< 5.00	CC(C)n1cnnc1-c1cccc(N2CCN(c3ccc(N4CCOCC4)cc3)C2=O)n1 [Example 1043, 1-(6-(4-isopropyl-4H-1,2,4-triazol-3-yl)pyridin-2-yl)-3-(4-morpholinophenyl)imidazolidin-2-one]
5.10	CC(C)n1cnnc1-c1cccc(N2CCN(c3ccc(N4CCC(C(=O)N(C)C)CC4)cc3)C2=O)n1 [Example 1097, 1-(4-(3-(6-(4-isopropyl-4H-1,2,4-triazol-3-yl)pyridin-2-yl)-2-oxoimidazolidin-1-yl)phenyl)-N,N-dimethylpiperidine-4-carboxamide]
5.07	CNC(=O)C1CCN(c2ccc(N3CCN(c4cccc(-c5nncn5C(C)C)n4)C3=O)cc2)CC1 [Example 1082, 1-(4-(3-(6-(4-isopropyl-4H-1,2,4-triazol-3-yl)pyridin-2-yl)-2-oxoimidazolidin-1-yl)phenyl)-N-methylpiperidine-4-carboxamide]
< 5.00	CC(C)n1cnnc1-c1cccc(N2CCN(c3ccc(N4CC(C#N)C4)cc3)C2=O)n1 [Example 1071, 1-(4-(3-(6-(4-isopropyl-4H-1,2,4-triazol-3-yl)pyridin-2-yl)-2-oxoimidazolidin-1-yl)phenyl)azetidine-3-carbonitrile]
